We go through one compound from patent US20140163067A1, “Methods of Treatment of Limited Cognitive Impairment” (ENVIVO PHARMACEUTICALS, INC., priority 2011, published 2014).

This assay has as its system subjects suffering from LCI. Description: Sensory electrophysiological responses (P50 gating, MMN, P300, N100) in LCI subjects. The format is in vivo, human. The following applies: compared with placebo, effects expected at a daily dose as low as 0.3 mg, dosed daily for 20 days. On the procedure:
These effects are expected at a daily dose as low as 0.3 mg of (R)-7-chloro-N-(quinuclidin-3-yl)benzo[b]thiophene-2-carboxamide hydrochloride.
Impairment of the ability of central nervous system to inhibit irrelevant sensory information has long been used as a model for understanding the deficits of attention seen in subjects. Two approaches to the measurement of this ability have commonly been employed (see (Heinrichs, 2004; Potter et al., 2006; Turetsky et al., 2007; Umbricht and Krljes, 2005) for reviews and meta-analyses): (1) the sensory gating paradigm in which the presentation of one stimulus normally suppresses the response elicited by a stimulus which rapidly follows it; and (2) the oddball or orienting paradigm in which a rare or unexpected event elicits a diminished response in subjects because attentional resources are inappropriately focused on less salient aspects of the environment.
Two responses are commonly used assess brain activity: (1) the auditory P50 response elicited by the second member of a pair of clicks; and (2) the mismatch negativity (MMN) or N2 response evoked by a rarely occurring pure tone of no instructed relevance to the subject. Abnormalities in both P50 gating and the MMN have been reported in schizophrenic subjects. […]

The structures appear in SMILES notation.

Regarding `Cl.O=C(N[C@H]1CN2CCC1CC2)c1cc2cccc(Cl)c2s1` [(R)-7-chloro-N-(quinuclidin-3-yl)benzo[b]thiophene-2-carboxamide hydrochloride], the “sensory electrophysiological responses which correlate with improved cognitive and functional performance” value is “can improve sensory electrophysiological responses”.
